Results reported in US6759385B1, “Methods to treat undesirable immune responses” (Regents of the University of Minnesota, priority 1997, dated 2004).

Legend:
[1] = Distribution in the respiratory tract of solutions administered nasally; assay type: in vivo, mouse; conditions: 25 μl of 4% solution into nostrils, 10-15 minutes
Procedure: Distribution in the Respiratory Tract of Solutions Administered Nasally. To determine which parts of the mouse respiratory system came in contact with solutions given nasally, a solution of ethidium bromide was employed. Ethidium bromide is absorbed through the mucosal lining of the respiratory tract and fluoresces brightly under U.V. light. Two mice were anesthetized and 25 μl of a 4% ethidium bromide solution in PBS was instilled into the nostrils. Ten-fifteen minutes later the animals were sacrificed by cervical dislocation. Their nasal cavities, larynx, trachea, bronchi and lungs were dissected, washed in PBS and examined under U.V. light for ethidium bromide staining.

[2] = system: established EMG in B6 mice; assay: Subcutaneous treatment, post-priming protocol, established EMG (Example IV); assay type: in vivo, mouse
Procedure: (§1) B6 mice (Jackson Laboratory, Bar Harbor, Me.) were injected s.c. with 100 μl of PBS containing increasing amounts of a pool of the same amount in weight of each of the three epitope peptides Tα150-169, Tα180-200 and Tα360-378 (‘peptide pool’), or 200 μg of Tα150-169 alone, or 100 μl of PBS containing 0.1% Triton X-100 and 10 μg of solubilized TAChR. Two different treatment schedules were used, referred to as prevention and post-priming protocols. In the prevention protocol, the peptides or solubilized TAChR were administered twice per week for 14 weeks, starting 2 weeks before the beginning of the immunization with TAChR. In the post-priming protocol, peptides or solubilized TAChR were administered twice per week for […], starting 8 weeks after the beginning of the TAChR immunization. Control mice received 100 μl of peptide-free PBS, following the same schedules.
(§2) Immunization 8-10 week old mice were immunized by s.c. injections, along the back and at the base of the tail, of TAChR (a total of 50 μg in 100 μl of PBS for each immunization) emulsified in an equal volume of CFA for the first injection, and IFA for the following two boosts. The mice were injected for a total of three times at 3-4 week intervals. At the end of the observation period, the mice received a third boost, and were sacrificed 5-7 days later. Control mice were injected with clean PBS in the appropriate adjuvant.
Evaluation of the symptoms of EMG The EMG symptoms were quantified using a forced exercise test sensitized by i.p. injection of a minute amount of pancuronium bromide (0.03 mg/kg) just before the test (Karachunski et al., 1995). The mouse hangs from a grid suspended above a soft padding, and the time it takes the mouse to fall three times (‘holding time’) was measured. The test is parametric, and gives a quantitative assessment of the mouse weakness. The myasthenic nature of the weakness was verified by injecting i.p. edrophonium chloride (Reversol, Organon, West Orange, N.J.), which is a cholinesterase inhibitor. […] The mice were tested without knowledge of their treatment. […]

serum anti-TAChR Ab = assay: Anti-TAChR IgG and IgG1 radioimmunoprecipitation assay (Example IV); assay type: in vivo, mouse; conditions: s.c. tolerization, prevention protocol
Procedure: Anti-TAChR Ab assay. Sera was obtained from each mouse after each clinical testing and at the end of the observation period (12 weeks after beginning of the TAChR immunization). The serum concentration of anti-TAChR IgG and IgGI was determined by radioimmunoprecipitation assay, using TAChR solubilized in Triton X-100 and labeled by the binding of ^125I-α-BTX (Bellone et al., 1991a). As a secondary Ab, either rabbit anti-mouse IgG produced, or goat anti-mouse IgG1 (Sigma, St. Louis, Mo.), was used. The anti-TAChR Ab concentration is expressed as μM precipitated ^125I-α-BTX binding sites.
Two types of experiments were carried out. In one of them the total anti-TAChR Ab in the sera of individual mice, obtained 8, 10 and 12 weeks after the first TAChR immunization, was determined. In the other, the anti-TAChR IgG1 concentration was determined, as well as the total anti-TAChR IgG concentration, in sera obtained at the end of the observation period. For this second assay pooled sera from five mice that had received identical treatments was used.

[3] = system: EMG in B6 mice immunized with TAChR; assay: Subcutaneous tolerization, prevention protocol, EMG symptoms (Example IV); assay type: in vivo, mouse; conditions: s.c. 10 μg/injection
Procedure: as §1, §2
Evaluation of the symptoms of EMG The EMG symptoms were quantified using a forced exercise test sensitized by i.p. injection of a minute amount of pancuronium bromide (0.03 mg/kg) just before the test (Karachunski et al., 1995). The mouse hangs from a grid suspended above a soft padding, and the time it takes the mouse to fall three times (‘holding time’) was measured. The test is parametric, and gives a quantitative assessment of the mouse weakness. The myasthenic nature of the weakness was verified by injecting i.p. edrophonium chloride (Reversol, Organon, West Orange, N.J.), which is a cholinesterase inhibitor. […] The mice were tested without knowledge of their treatment.
The holding time of normal mice was 10.4±2.1 minutes (n=99). Mice with holding times of 8 minutes or longer were considered normal. Mice with holding times less than 6.2 minutes (the holding time of normal mice minus two SD) were considered to have fully developed EMG. Holding times of 6.2-8 minutes were considered to potentially indicate initial EMG. Normal or sham-immunized mice had occasionally holding times of 6.2-8 minutes, but never less than 6.2 minutes. Paralyzed mice and mice that died of respiratory paralysis are indicated as having holding time of 0 minutes.

[4] = system: CD4+ cells of MG patients; assay: Response of CD4+ T cells of MG patients to synthetic human AChR peptides; assay type: cell-based; conditions: irrespective of HLA class II type
Source text: Several studies have identified sequences of the human AChR α subunit recognized by T cells in MG patients. To determine whether the CD4^+ cells recognizing those immunodominant and/or universal epitope sequences can drive the synthesis of pathogenic anti-AChR antibodies, and how the ability of the different sequence regions of the AChR to interact with different HLA DR molecules correlates with the presence of universal CD4^+ epitopes, synthetic peptides based on the amino acid sequence of the human α subunit of AChR (Noda et al., Nature, 305, 818 (1983); Schoepfer et al., FEBS Lett., 226, 235 (1981)) were prepared. The peptides were approximately 20 residues long, a length that compares with that of naturally processed class II-restricted epitopes, which are 9-14 residues. […] The peptides overlapped by 5-10 residues to reduce the risk of missing epitopes “broken” between peptides.
The response to individual overlapping synthetic AChR peptides spanning the sequence of each AChR subunit, of unselected blood […], and of CD4^+ T cell lines enriched with AChR-specific cells by culture in vitro with ACHR antigens, was tested. The use of those two cell populations has different advantages and limitations. AChR-specific CD4+ lines have strong, consistent responses to individual peptides that allow a clear-cut assessment of their epitope repertoire. However, they may have an epitope repertoire different from that of the original CD4^+ population due to biased clonal propagation in vitro. Also, denatured forms of the antigen such as synthetic and biosynthetic peptides, which are commonly used for propagation of CD4+ cells specific for rare antigens, may be processed into peptide epitopes different from those obtained from processing of the native antigen in vivo and may expand […] irrelevant for the immune process in vivo. […]

Molecule: CC[n+]1c(-c2ccccc2)c2cc(N)ccc2c2ccc(N)cc21 [ethidium bromide]
- staining of bronchi [1]: increasingly weaker
- staining of lung parenchyma [1]: only weak focal signals
- staining of nostrils, larynx and trachea [1]: brightly stained

Molecule: solubilized TAChR: Torpedo californica acetylcholine receptor purified from electric organ, solubilized in Triton X-100
- mice with holding times of 6.2 or less ([2]; at 44 weeks, s.c. post-priming protocol): 80%
- EMG frequency after the s.c. treatment had started ([2]; s.c. without adjuvant, post-priming protocol): very high EMG frequency
- effect on anti-TAChR Ab synthesis (serum anti-TAChR Ab): delayed but did not ultimately affect
- protection from EMG [3]: protected from EMG to levels comparable
- mice with clear EMG weakness ([3]; at 12 weeks): one of 12
- mice with holding times of 6.2-8 minutes ([3]; at 12 weeks): two mice

Molecule: α403-437: carboxyl-terminal human AChR α subunit sequence covered by peptides α403-421 and α419-437 (AMVMDHILLGVFMLVCIIGTLAVFAGRLIELNQQG; UniProt P02708 423-457, looked up, fragment)
- recognition by CD4+ cells of MG patients [4]: recognized by the majority of the patients

Molecule: peptide α304-322: synthetic sequence of the human AChR α subunit, universal epitope (STHVMPNWVRKVFIDTIPN; UniProt P02708 324-342, looked up, fragment)
- recognition by CD4+ cells of MG patients [4]: recognized by the majority of the patients

Molecule: α101-137: human AChR α subunit sequence region covered by peptides α101-120 and α118-137 (AIVKFTKVLLQYTGHITWTPPAIFKSYCEIIVTHFPF; UniProt P02708 121-157, looked up, fragment)
- recognition by CD4+ cells of MG patients [4]: recognized by the majority of the patients
